In article PMC10266417, “LeishIF3d is a non-canonical cap-binding protein in Leishmania” (Frontiers in Molecular Biosciences, 2023):

How the values were obtained:
LeishIF4E1 = biological target: T1, LeishIF4E1 (Leishmania mexicana, UniProt E9AZ65); assay: m7GTP-agarose affinity pull-down, western blot with LeishIF4E1-specific antibodies; format: biochemical; details: L. mexicana extract; m7GTP immobilised on agarose; 20 mM HEPES pH 7.4, 50 mM NaCl; 100 uM GTP wash, 200 uM m7GTP elution; positive control
T1 construct: gene LMXM_27_1620; endogenous untagged protein in L. mexicana promastigote extract, detected with specific antibodies
T1 sequence (E9AZ65 1-213): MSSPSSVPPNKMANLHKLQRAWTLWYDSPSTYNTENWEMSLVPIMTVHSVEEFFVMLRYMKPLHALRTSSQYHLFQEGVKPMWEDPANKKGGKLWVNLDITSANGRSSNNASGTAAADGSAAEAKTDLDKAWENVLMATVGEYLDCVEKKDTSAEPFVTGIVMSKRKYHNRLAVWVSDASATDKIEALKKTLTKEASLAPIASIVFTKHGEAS

LeishIF3d = biological target: T2, LeishIF3d (Leishmania mexicana, UniProt E9B178); assay: m7GTP-agarose affinity binding of purified His-tagged protein, elution with free m7GTP, anti-His western blot; details: m7GTP immobilised on agarose; eluted with free m7GTP
T2 construct: gene LMXM_29_3040; full ORF (1596 bp); recombinant His-tagged from E. coli BL21 (pET52, Ni-NTA); mutants C-terminally SBP-tagged, expressed episomally in L. mexicana
T2 sequence (E9B178 1-531): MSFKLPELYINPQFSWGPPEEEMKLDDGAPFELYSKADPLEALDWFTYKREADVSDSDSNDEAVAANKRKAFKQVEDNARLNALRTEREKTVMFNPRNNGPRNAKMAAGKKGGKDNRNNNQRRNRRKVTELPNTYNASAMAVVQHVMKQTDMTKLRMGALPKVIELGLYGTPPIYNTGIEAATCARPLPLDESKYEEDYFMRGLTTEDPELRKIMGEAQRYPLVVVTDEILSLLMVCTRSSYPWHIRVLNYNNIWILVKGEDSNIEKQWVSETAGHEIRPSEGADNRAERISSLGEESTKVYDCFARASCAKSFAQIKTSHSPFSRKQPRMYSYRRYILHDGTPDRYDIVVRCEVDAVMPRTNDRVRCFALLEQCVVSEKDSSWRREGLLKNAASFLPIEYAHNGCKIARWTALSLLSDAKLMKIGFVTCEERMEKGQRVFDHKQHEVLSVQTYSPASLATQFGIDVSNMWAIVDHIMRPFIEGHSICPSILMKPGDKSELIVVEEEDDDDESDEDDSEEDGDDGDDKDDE

For `C[n+]1cn([C@@H]2O[C@H](COP(=O)(O)OP(=O)(O)OP(=O)(O)O)[C@@H](O)[C@H]2O)c2nc(N)[nH]c(=O)c21` [m^7GTP], the “m7GTP-agarose affinity pull-down, western blot with LeishIF4E1-specific antibodi” value (LeishIF4E1) was “LeishIF3d could bind m^7GTP, as did the positive control of LeishIF4E1” and the “m7GTP-agarose affinity binding of purified His-tagged protein, elution with free” value (LeishIF3d) was “direct binding of recombinant His-tagged LeishIF3d to m^7GTP”.
